The results in this text go back to ChEMBL document CHEMBL1201862, “PubChem BioAssay data set” (2004).

Molecules are shown by their SMILES.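 Method: 48-hour compound exposure of cells in 96-well plates, five concentrations, linear interpolation of endpoints. GI50 = concentration required for 50% inhibition of growth.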 Calls of active or inactive are those of the source. Rule as the data show it: active = GI50 up to about 1.1 µM and inactive = higher.

Test systems include NCI-H460; OVCAR-5; TK-10; HCC 2998; HOP-62; SK-MEL-5; K562; ACHN; MOLT-4; CAKI-1; A549; SK-MEL-28; 786-0; HL-60; UACC-257; SR.
What all share (assay): DTP human tumour cell line panel, 48 h

For orientation: GI50 means the concentration at which growth is held to half of that of the control. For `C/C=C(/I)CBr`, the GI50 with NCI-H460 is 18.9 µM (inactive); in the experiment on OVCAR-5, > 10 µM (inactive); with TK-10, > 10 µM (inactive); in the experiment with HCC 2998, 15.9 µM (inactive); with HOP-62, 22.5 µM (inactive); in the experiment on SK-MEL-5 it was 15.5 µM (inactive). Further, the GI50 in the experiment with K562 was 5.15 µM (inactive); in the experiment on ACHN, 21.8 µM (inactive); in the experiment on MOLT-4, 15.9 µM (inactive); in the experiment on CAKI-1, 1.07 µM (active); in the experiment on A549, 24.3 µM (inactive); with SK-MEL-28, 21 µM (inactive). Also, the GI50 with 786-0 is 17 µM (inactive); with HL-60, 4.49 µM (inactive).

For the compound `Cc1c(C(=O)NCCO)[n+]([O-])c2cc(Cl)ccc2[n+]1[O-]`, the GI50 in the experiment with NCI-H460, in the experiment with OVCAR-5, in the experiment with TK-10, with HCC 2998, in the experiment with HOP-62 and in the experiment with SK-MEL-5 was > 100 µM (inactive) in each case. Besides, the GI50 in the experiment with K562, with ACHN, in the experiment with MOLT-4, in the experiment with UACC-257, with A549 and in the experiment on SR was > 100 µM (inactive) each time. Besides, the GI50 with SK-MEL-28, in the experiment on 786-0 and with HL-60 was > 100 µM (inactive) each time.

`COc1ccc(C(=O)C(c2ccc(OC)cc2)C2(O)C(=O)Nc3c(Cl)cc(Cl)cc32)cc1` (stereo unspecified): the GI50 is 20.7 µM (inactive) with NCI-H460; 20.1 µM (inactive) in the experiment with OVCAR-5; 22.5 µM (inactive) in the experiment with TK-10; > 10 µM (inactive) in the experiment on HCC 2998; 23.8 µM (inactive) in the experiment with HOP-62; 18.5 µM (inactive) in the experiment with SK-MEL-5. In addition, the GI50 in the experiment with K562 is 16.6 µM (inactive); in the experiment on ACHN, 22.8 µM (inactive); in the experiment on MOLT-4 it was 9.35 µM (inactive); with UACC-257 it was 17.3 µM (inactive); in the experiment with CAKI-1, 19.1 µM (inactive); with A549 it was 24.2 µM (inactive). Moreover, the GI50 in the experiment on SK-MEL-28 was 22.3 µM (inactive); in the experiment with 786-0, 14.3 µM (inactive); in the experiment with HL-60, 4.68 µM (inactive).

On to `CCOC(=O)c1ncn2c1[nH]c(=O)c1ccccc12`, for which the GI50 in the experiment on NCI-H460, in the experiment with OVCAR-5, in the experiment with TK-10, with SK-MEL-5, in the experiment on K562 and with ACHN was > 100 µM (inactive) in each case. In addition, the GI50 in the experiment on MOLT-4 was > 100 µM (inactive); with A549, > 100 µM (inactive); with SR it was > 100 µM (inactive); in the experiment on SK-MEL-28 it was > 100 µM (inactive); in the experiment on 786-0, > 100 µM (inactive); in the experiment with HL-60, > 10 µM (inactive).

On to `OC(c1ccccn1)C1CNc2ccccc21` (stereo unspecified), for which the GI50 with NCI-H460, with OVCAR-5, with TK-10, in the experiment on HCC 2998, in the experiment with HOP-62 and in the experiment on SK-MEL-5 was > 100 µM (inactive) each time. Moreover, the GI50 in the experiment with K562, in the experiment on ACHN, in the experiment with MOLT-4, in the experiment with UACC-257, with CAKI-1 and in the experiment on A549 was > 100 µM (inactive) throughout. Besides, the GI50 in the experiment on SK-MEL-28, in the experiment with 786-0 and with HL-60 was > 100 µM (inactive) throughout.

Regarding `COc1ccc(/C=C/C(=O)c2c(-c3ccccc3)nn(C)c(=O)c2N2CC2C)cc1` (stereo unspecified), the GI50 is 27.5 µM (inactive) with NCI-H460; 37.6 µM (inactive) with OVCAR-5; 41.1 µM (inactive) in the experiment with TK-10; 26.6 µM (inactive) in the experiment with HCC 2998; 35.6 µM (inactive) in the experiment on HOP-62; 29.4 µM (inactive) with SK-MEL-5. The GI50 in the experiment on K562 was 26.2 µM (inactive); in the experiment with ACHN, 36.2 µM (inactive); in the experiment with MOLT-4, 25.5 µM (inactive); with UACC-257, 42.2 µM (inactive); in the experiment on CAKI-1 it was 44.5 µM (inactive); in the experiment on A549 it was 43.2 µM (inactive). The GI50 in the experiment on SK-MEL-28 is 52.6 µM (inactive); with 786-0 it was 36.4 µM (inactive); in the experiment on HL-60 it was 17.5 µM (inactive).

In the case of `CC1=C(C(=O)Nc2ccccc2)C(c2ccc([N+](=O)[O-])cc2)C(C(=O)Nc2ccccc2)=C(C)N1`, the GI50 in the experiment on NCI-H460 is 21.1 µM (inactive); in the experiment with OVCAR-5, 40.9 µM (inactive); in the experiment with TK-10 it was 28.7 µM (inactive); in the experiment with HCC 2998, 20.2 µM (inactive); in the experiment on HOP-62 it was 39.1 µM (inactive); with SK-MEL-5, 24.1 µM (inactive). For the same compound, the GI50 is 15.4 µM (inactive) in the experiment with K562; 37 µM (inactive) in the experiment with ACHN; 7.05 µM (inactive) with MOLT-4; 18.5 µM (inactive) in the experiment on UACC-257; 34 µM (inactive) in the experiment on A549; 18.4 µM (inactive) with SR. Moreover, the figures for the GI50 with SK-MEL-28, in the experiment on 786-0 and with HL-60 were 31.5 µM (inactive), 19.8 µM (inactive) and 13.1 µM (inactive), respectively.

Turning to `Cc1cc2c(cc1C)[n+]([O-])c(-c1c(Cl)cccc1Cl)c(N)[n+]2[O-]`, the GI50 in the experiment with NCI-H460 was 30.3 µM (inactive); in the experiment with OVCAR-5, > 100 µM (inactive); in the experiment with TK-10 it was > 100 µM (inactive); in the experiment with HCC 2998 it was 25.8 µM (inactive); in the experiment on HOP-62, 30.5 µM (inactive); in the experiment on SK-MEL-5, 20.7 µM (inactive). Besides, the GI50 in the experiment with K562 was 32 µM (inactive); in the experiment with ACHN, 36.5 µM (inactive); with MOLT-4, 26.2 µM (inactive); in the experiment on UACC-257, 24.6 µM (inactive); with CAKI-1, 31 µM (inactive); with A549, 30.1 µM (inactive). The results for the GI50 in the experiment on SK-MEL-28, in the experiment with 786-0 and with HL-60 were 28.2 µM (inactive), 52 µM (inactive) and 26 µM (inactive), respectively.

In the case of `CCN(CC)CC(C(=O)Nc1c(C)cccc1C)/C(C)=N/NC(N)=S` (stereo unspecified), the GI50 with NCI-H460, in the experiment on OVCAR-5, in the experiment on TK-10, with HCC 2998, with HOP-62 and in the experiment with SK-MEL-5 was > 100 µM (inactive) throughout. Besides, the GI50 in the experiment on K562, with ACHN, in the experiment on MOLT-4, in the experiment with UACC-257, with A549 and in the experiment on SK-MEL-28 was > 100 µM (inactive) throughout. The GI50 in the experiment on 786-0 and in the experiment on HL-60 was > 100 µM (inactive) in each case.

Regarding `Cc1nc2c(n1CC(C)C)C(=O)c1ccccc1C2=O`, the GI50 in the experiment on NCI-H460 was 23.4 µM (inactive); with TK-10, > 100 µM (inactive); in the experiment with HCC 2998 it was 71.4 µM (inactive); in the experiment on HOP-62 it was 42.1 µM (inactive); in the experiment on SK-MEL-5 it was 18.8 µM (inactive); in the experiment on K562 it was 29.9 µM (inactive). The GI50 in the experiment on ACHN is 32.1 µM (inactive); in the experiment with MOLT-4, 38.6 µM (inactive); with UACC-257, 17.7 µM (inactive); in the experiment on A549, 32.9 µM (inactive); with SR, 41.6 µM (inactive); in the experiment with SK-MEL-28, 67.9 µM (inactive). Besides, the results for the GI50 with 786-0 and with HL-60 were 55.1 µM (inactive) and 23 µM (inactive), respectively.

As to `C=CCOC(C)n1c(C)cc(=O)n(C(C)OCC=C)c1=O` (stereo unspecified), the GI50 with HCC 2998, in the experiment with HOP-62, in the experiment with SK-MEL-5, in the experiment with K562, in the experiment on ACHN and in the experiment on MOLT-4 was > 100 µM (inactive) throughout. The GI50 with UACC-257, with A549, in the experiment on SR, with SK-MEL-28, in the experiment on 786-0 and with HL-60 was > 100 µM (inactive) in each case.

Regarding `CCOC(=O)NC(=O)c1cn(CCN2CCN(C(=O)NCCCCCCNC(=O)N3CCN(CCn4cc(C(=O)NC(=O)OCC)c(=O)[nH]c4=O)CC3)CC2)c(=O)[nH]c1=O`, the GI50 in the experiment on NCI-H460, in the experiment with OVCAR-5, with TK-10, in the experiment on HCC 2998, in the experiment with HOP-62 and in the experiment with SK-MEL-5 was > 100 µM (inactive) each time. For the same compound, the GI50 with K562, with ACHN, with UACC-257, in the experiment with A549, in the experiment with SR and in the experiment with SK-MEL-28 was > 100 µM (inactive) each time. Also, the GI50 in the experiment with 786-0 and in the experiment on HL-60 was > 100 µM (inactive) each time.

`COC(=O)C(CC(C)=O)CS(=O)(=O)CC(=O)C(=O)Nc1cccc([N+](=O)[O-])c1` (stereo unspecified): the GI50 with NCI-H460, with OVCAR-5, in the experiment with TK-10, with HCC 2998, with HOP-62 and in the experiment with SK-MEL-5 was > 100 µM (inactive) in each case. Further, the GI50 in the experiment on K562, with ACHN, with UACC-257, in the experiment on CAKI-1, in the experiment on A549 and with SK-MEL-28 was > 100 µM (inactive) in each case. In the experiment with 786-0, the GI50 is > 100 µM (inactive).

On to `COc1cc(/C=C\c2ccc(OC(C)=O)cc2)cc(OC)c1OC`, for which the GI50 with NCI-H460 was 4.1 µM (inactive); with OVCAR-5, 62.7 µM (inactive); in the experiment on HCC 2998, 8.13 µM (inactive); in the experiment on HOP-62, 5.32 µM (inactive); with K562 it was 2.59 µM (inactive); with ACHN, 6.46 µM (inactive). The GI50 is 3.78 µM (inactive) in the experiment with MOLT-4; 2.48 µM (inactive) with UACC-257; 29.1 µM (inactive) in the experiment with CAKI-1; 6.62 µM (inactive) in the experiment on A549; 5.04 µM (inactive) in the experiment on SR; 1.44 µM (inactive) in the experiment with SK-MEL-28. Moreover, the GI50 in the experiment with 786-0 is 3.56 µM (inactive).
